Test results as given in ChEMBL document CHEMBL3734667 (Bioorg Med Chem, 2015).
Calls of active or inactive are those of the source. No cut-off for these calls is given here.

Assays:
[1] = tested on: Respiratory syncytial virus; assay: Antiviral activity against RSV; format: functional, organism-based; conditions: human respiratory syncytial virus
[2] = tested on: Coxsackievirus B5; assay: Antiviral activity against human CVB5 infected in african green monkey Vero76 cells assessed as inhibition of virus-induced cytopathogenicity after 3 days by plaque reduction assay; format: functional, organism-based; conditions: Enterovirus B, Vero 76, 72 h
[3] = Selectivity index, ratio of CC50 for BHK-21 cells to EC50 for YFV; parameters: species or system Yellow fever virus
[4] = tested on: Vaccinia virus; assay: Antiviral activity against Vaccinia virus; format: functional, organism-based; conditions: Orthopoxvirus vaccinia
[5] = tested on: Vesicular stomatitis virus; assay: Antiviral activity against VSV; format: functional, organism-based
[6] = Cytotoxicity against human MT4 cells assessed as cell viability after 96 hrs by MTT assay; format: cell-based
[7] = Cytotoxicity against african green monkey Vero 76 cells assessed as cell viability after 48 to 96 hrs by crystal violet staining method; format: cell-based; conditions: chlorocebus sabaeus
[8] = tested on: West Nile virus; assay: Antiviral activity against WNV infected in BHK-21 cells assessed as inhibition of virus-induced cytopathogenicity after 3 to 4 days by MTT assay; format: functional, organism-based
[9] = tested on: dengue virus type 2; assay: Antiviral activity against DENV-2 infected in BHK-21 cells assessed as inhibition of virus-induced cytopathogenicity after 3 to 4 days by MTT assay; format: functional, organism-based
[10] = tested on: Poliovirus 1; assay: Antiviral activity against Human poliovirus 1 Sabin infected in african green monkey Vero76 cells assessed as inhibition of virus-induced cytopathogenicity by plaque reduction assay; format: functional, organism-based; conditions: Enterovirus C, Vero 76
[11] = Selectivity index, ratio of CC50 for MDBK cells to EC50 for BVDV; parameters: species or system Bovine viral diarrhea virus 1
[12] = Cytotoxicity against BHK cells assessed as cell viability after 48 to 96 hrs by MTT assay; format: cell-based, Mesocricetus auratus; conditions: hamster
[13] = Cytotoxicity against MDBK cells assessed as cell viability after 48 to 96 hrs by MTT assay; format: cell-based, Bos taurus; conditions: cattle
[14] = tested on: Human orthopneumovirus; assay: Antiviral activity against human RSV infected in african green monkey Vero76 cells assessed as inhibition of virus-induced cytopathogenicity after 5 days by plaque reduction assay; format: functional, organism-based; conditions: human respiratory syncytial virus, Vero 76, 120 h
[15] = tested on: Human alphaherpesvirus 1; assay: Antiviral activity against HSV1; format: functional, organism-based
[16] = tested on: Yellow fever virus; assay: Antiviral activity against YFV infected in BHK-21 cells assessed as inhibition of virus-induced cytopathogenicity after 3 to 4 days by MTT assay; format: functional, organism-based
[17] = Selectivity index, ratio of CC50 for african green monkey Vero76 cells to EC50 for human CVB5; parameters: species or system Coxsackievirus B5, Vero 76
[18] = tested on: Coxsackievirus B2; assay: Antiviral activity against Human coxsackievirus B2; format: functional, organism-based; conditions: Enterovirus B
[19] = tested on: Bovine viral diarrhea virus 1; assay: Antiviral activity against BVDV infected in MDBK cells assessed as inhibition of virus-induced cytopathogenicity after 3 to 4 days by MTT assay; format: functional, organism-based; conditions: Bovine viral diarrhea virus isolates and strains
[20] = Selectivity index, ratio of CC50 for african green monkey Vero76 cells to EC50 for human RSV; parameters: species or system human respiratory syncytial virus, Vero 76
[21] = tested on: Human immunodeficiency virus 1; assay: Antiviral activity against HIV-1 infected in MT4 cells assessed as inhibition of virus-induced cytopathogenicity after 4 days by MTT assay; format: functional, organism-based; conditions: Human immunodeficiency virus 1, MT4, 96 h
[22] = biological target: T1, Peroxisome proliferator-activated receptor gamma (Homo sapiens) (UniProt P37231); assay: (§1) Agonist activity at human PPAR gamma in human HepG2 cells after 20 hrs by luciferase reporter assay; format: cell-based
T1 sequence (whole entry): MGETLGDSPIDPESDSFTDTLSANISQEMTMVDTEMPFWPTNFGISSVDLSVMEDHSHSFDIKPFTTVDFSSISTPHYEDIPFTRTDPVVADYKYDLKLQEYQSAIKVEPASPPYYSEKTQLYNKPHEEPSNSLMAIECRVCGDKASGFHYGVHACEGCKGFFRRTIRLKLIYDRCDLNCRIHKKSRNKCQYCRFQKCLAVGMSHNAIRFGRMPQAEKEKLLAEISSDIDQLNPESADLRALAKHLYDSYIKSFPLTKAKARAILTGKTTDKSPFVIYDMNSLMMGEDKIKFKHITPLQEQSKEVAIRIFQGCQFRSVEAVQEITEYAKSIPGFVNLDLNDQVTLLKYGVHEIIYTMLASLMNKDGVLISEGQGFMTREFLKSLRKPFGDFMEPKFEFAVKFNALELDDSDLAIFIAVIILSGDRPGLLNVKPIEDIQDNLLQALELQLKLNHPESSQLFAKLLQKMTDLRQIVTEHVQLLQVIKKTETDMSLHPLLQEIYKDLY

[23] = biological target: T2, Peroxisome proliferator-activated receptor alpha (Homo sapiens) (UniProt Q07869); assay: (§2) Agonist activity at human PPAR alpha in human HepG2 cells after 20 hrs by luciferase reporter assay; format: cell-based
T2 sequence (whole entry): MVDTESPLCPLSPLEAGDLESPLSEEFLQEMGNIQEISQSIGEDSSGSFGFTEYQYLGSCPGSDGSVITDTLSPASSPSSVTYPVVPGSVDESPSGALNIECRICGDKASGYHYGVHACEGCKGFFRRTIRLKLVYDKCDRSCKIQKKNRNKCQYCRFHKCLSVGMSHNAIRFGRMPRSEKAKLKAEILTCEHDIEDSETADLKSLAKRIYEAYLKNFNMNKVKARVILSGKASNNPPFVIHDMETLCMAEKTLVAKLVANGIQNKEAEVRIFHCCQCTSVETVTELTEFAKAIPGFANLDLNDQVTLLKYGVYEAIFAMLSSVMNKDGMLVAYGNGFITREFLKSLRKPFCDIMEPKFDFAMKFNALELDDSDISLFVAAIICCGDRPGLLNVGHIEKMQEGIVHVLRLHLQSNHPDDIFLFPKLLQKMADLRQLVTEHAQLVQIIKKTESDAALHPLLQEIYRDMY

[24] = tested on: Influenza B virus; assay: Antiviral activity against Influenza B virus; format: functional
[25] = tested on: Poliovirus 2; assay: Antiviral activity against Human poliovirus 2; format: functional; conditions: Enterovirus C
[26] = tested on: Semliki Forest virus; assay: Antiviral activity against Semliki forest virus assessed as inhibition of virus growth at 170 uM; format: functional
[27] = tested on: Poliovirus 1; assay: Antiviral activity against Human poliovirus 1 Sabin; format: functional, organism-based; conditions: Enterovirus C
[28] = Inhibition of HCV helicase; parameters: species or system Hepacivirus hominis
[29] = tested on: Mammalian orthoreovirus 1; assay: Antiviral activity against Reo-1 virus infected in BHK-21 cells assessed as inhibition of virus-induced cytopathogenicity after 3 to 4 days by MTT assay; format: functional, cell-based; conditions: Mammalian orthoreovirus 1, BHK-21
[30] = Selectivity index, ratio of CC50 for BHK-21 cells to EC50 for DENV-2
[31] = Selectivity index, ratio of CC50 for BHK-21 cells to EC50 for WNV; parameters: species or system West Nile virus
[32] = Selectivity index, ratio of CC50 for human MT4 cells to EC50 for HIV-1; format: toxicity, cell-based; conditions: human immunodeficiency virus 1, MT4 cells; read-out: Ratio CC50/EC50
[33] = Selectivity index, ratio of CC50 for african green monkey Vero76 cells to EC50 for human Sb-1; parameters: species or system Human poliovirus 1 strain Sabin, Vero 76
[34] = biological target: Peroxisome proliferator-activated receptor gamma (Homo sapiens, UniProt P37231); assay: as §1; format: cell-based
[35] = biological target: Peroxisome proliferator-activated receptor alpha (Homo sapiens, UniProt Q07869); assay: as §2; format: cell-based

Row | SMILES | EC50 [2] | EC50 [4] | EC50 [5] | CC50 at 96 h [6] | CC50 [7] | EC50 [10] | Ratio CC50/EC50 [11] | CC50 [12] | CC50 [13] | EC50 [14] | EC50 [16] | EC50 [19] | EC50 [21] | other results
1 | O=c1n(Cc2nc3ccccc3n2CCCCO)c2cnccc2n1C1CC1 | – | – | – | – | – | – | – | – | – | – | – | – | – | EC50 [1]: 0.01 µM
2 | Clc1ccc2c(c1)nc(Cn1nnc3ccccc31)n2CC[C@@H]1CCCN2CCCC[C@H]12 | – | – | – | – | – | – | – | – | – | – | – | – | – | EC50 [1]: 0.02 µM
3 | C[C@@]1(O)[C@H](O)[C@@H](CO)O[C@H]1n1cnc2c(=O)[nH]c(N)nc21 [2'-B-METHYL-GUANOSINE] | 20 µM | > 100 µM | > 100 µM | > 100 µM | > 100 µM | > 100 µM | >58.8 | > 60 µM | > 100 µM | > 100 µM | 1.5 µM | – | – | Ratio CC50/EC50 [3]: >66.7; EC50 [8]: 0.7 µM; EC50 [9]: 1.2 µM; EC50 [15]: > 100 µM; Ratio CC50/EC50 [17]: >5
4 | CCC(=O)Nc1ccc(-n2nc3cc(C)c(C)cc3n2)cc1 | – | – | – | – | – | – | – | – | – | – | – | – | – | EC50 [18]: 10 µM
5 | COc1ccc2nn(-c3ccc(OCC(C)(C)C(=O)O)cc3)nc2c1 | 24 µM | > 100 µM | > 100 µM | ≥ 100 µM | 65 µM | > 100 µM | >1.51 | 100 µM | > 100 µM | 11 µM | > 100 µM | 66 µM | > 100 µM | Ratio CC50/EC50 [20]: 5.91; Ratio CC50/EC50 [17]: 2.71; Activity [22]: inactive; Activity [23]: inactive
6 | Clc1c(Cl)c(Cl)c2[nH]nnc2c1Cl | – | – | – | – | – | – | – | – | – | – | – | – | – | EC75 [24]: 3 µM; EC75 [25]: 8.1 µM
7 | O=c1[nH]c2cc(S(=O)(=O)n3nnc4cc(Cl)ccc43)ccc2o1 | – | – | – | – | – | – | – | – | – | – | – | – | – | inhibition at 170 µM [26]: 99%
8 | CC(=O)Nc1ccc(-n2nnc3ccc(C(F)(F)F)cc32)cc1 | – | – | – | – | – | – | – | – | – | – | – | – | – | EC50 [27]: 30 µM
9 | CC(C)(CCCOc1ccc(-n2nc3ccccc3n2)cc1)C(=O)O | 4 µM | > 100 µM | > 100 µM | 47 µM | 25 µM | > 100 µM | 2.26 | 31 µM | 61 µM | 5 µM | > 100 µM | 27 µM | > 100 µM | Ratio CC50/EC50 [20]: 5; Ratio CC50/EC50 [17]: 6.25; Activity [22]: inactive; Activity [23]: inactive
10 | OCC1OC(n2nnc3cc(Cl)c(Cl)cc32)C(O)C1O (stereo not given) | – | – | – | – | – | – | – | – | – | – | – | – | – | IC50 [28]: 1.5 µM; EC75 [24]: 750 µM
11 | Oc1ccc(-n2nc3cc(Cl)c(Cl)cc3n2)cc1 | 25 µM | > 100 µM | > 100 µM | 47 µM | 50 µM | > 100 µM | 2.64 | 28 µM | 37 µM | 8 µM | 6 µM | 14 µM | > 100 µM | Ratio CC50/EC50 [3]: 4.67; EC50 [29]: > 100 µM; Ratio CC50/EC50 [30]: 3.5; EC50 [8]: 13 µM; EC50 [9]: 8 µM; Ratio CC50/EC50 [20]: 6.25; Ratio CC50/EC50 [31]: 2.15; EC50 [15]: > 100 µM; Ratio CC50/EC50 [17]: 2
12 | CN(C)c1cccc(C(=O)OCCn2nc3ccccc3n2)c1 | > 100 µM | > 100 µM | > 100 µM | > 100 µM | > 100 µM | – | – | > 100 µM | > 100 µM | > 100 µM | > 100 µM | > 100 µM | 56 µM | selectivity ratio [32]: 1.78
13 | Oc1ccc(-n2nc3ccc(C(F)(F)F)cc3n2)cc1 | > 100 µM | > 100 µM | > 100 µM | ≥ 100 µM | > 100 µM | 80 µM | 1.57 | 65 µM | 47 µM | 10 µM | 17 µM | 30 µM | > 100 µM | Ratio CC50/EC50 [3]: 3.82; EC50 [29]: > 100 µM; Ratio CC50/EC50 [33]: >1.25; Ratio CC50/EC50 [30]: 3.82; EC50 [8]: > 100 µM; EC50 [9]: 17 µM; Ratio CC50/EC50 [20]: >10; EC50 [15]: > 100 µM
14 | CCCn1nc2c(Br)c(Br)c(Br)c(Br)c2n1 | – | – | – | – | – | – | – | – | – | – | – | – | – | IC50 [28]: 5.8 µM
15 | Oc1ccc2nn[nH]c2c1/N=N/c1ccc(Cl)cc1 | – | – | – | – | – | – | – | – | – | – | – | – | – | EC75 [24]: 4.3 µM
16 | Cc1cc(-n2nc3ccccc3n2)cc(C)c1OC(C)(C)C(=O)O | > 100 µM | > 100 µM | > 100 µM | > 100 µM | ≥ 100 µM | > 100 µM | – | > 100 µM | > 100 µM | > 100 µM | > 100 µM | > 100 µM | > 100 µM | EC50 [34]: 0.48 µM; EC50 [35]: 0.096 µM
